Laboratory results published in patent US20240024340A1, “Compositions and Methods For Treating Migraine” (priority 2020, published 2024).
Entries after “also recorded” stand apart in the source; their conditions may differ.

Assays:
BALB/c mice [1] = assay: Elevated plus maze (EPM), anxiety-like behavior
BALB/c mice [2] = assay type: in vivo; settings: for effect on TST immobility compared to vehicle: Day 22 (FIG. 6B), imipramine 15 mg/kg, psilocybin 5 mg/kg Day 1, or both
Experimental: Imipraime (15 mg/kg) was given 1 hour before tail suspension testing on Day 22. […] For positive control, one group was given imipramine which is known to reduce immobility in TST in stressed mice.
Analysis: Simple comparisons between two groups were measured through inferential means.
Psilocybin loading dose was given 3-weeks prior to behavioral testing and imipramine was given 1-hour before testing on each testing day via Intraperitoneal injection (i.p, 5 ml/kg).

BALB/c mice [3] = assay: Tail suspension test (TST), depression; psilocybin loading dose then psilocybin+CBD+6 MB maintenance

Compound	percentage of time spent in open space / open arms of the EPM (BALB/c mice [1]; Day 14, two weeks after loading dose of 5 mg/kg psilocybin, vs vehicle control, 5 mg/kg)	anxiety (symptoms) in mouse model (BALB/c mice [1]; loading dose psilocybin 5 mg/kg, alone or followed by low dose psilocybin, CBD and 6 mushroom blend)	effect on TST immobility compared to vehicle (BALB/c mice [2])	effect of psilocybin loading dose on anti-depressive properties of imipramine (BALB/c mice [2]; psilocybin 5 mg/kg Day 1, imipramine 15 mg/kg one hour before TST on Day 22 or Day 29)	immobile posture time in TST (BALB/c mice [3]; Day 15, psilocybin loading dose 5 mg/kg on Day 1)	immobility time in TST (BALB/c mice [3]; Day 22 (three weeks after 5 mg/kg loading dose of psilocybin), all groups receiving a loading dose)	depression (symptoms) in mouse model (BALB/c mice [3]; loading dose psilocybin 5 mg/kg, alone or followed by maintenance psilocybin, CBD and 6 mushroom blend)
[3-(2-dimethylaminoethyl)-1H-indol-4-yl] dihydrogen phosphate [psilocybin]	significantly increased; also recorded: more time	decreased	anti-depressant effect	potentiate	decreased	significantly lower; also recorded: significant decrease	decreased
CN(C)CCCN1c2ccccc2CCc2ccccc21 [imipramine]			anti-depressant effect				
